The values below come from PMC4793208 (RNA, 2016).

For one experiment, the target named is T1, S. pombe Dcp1/2 (Schizosaccharomyces pombe, UniProt O13828).
T1 sequence (O13828 1-243 limits assumed): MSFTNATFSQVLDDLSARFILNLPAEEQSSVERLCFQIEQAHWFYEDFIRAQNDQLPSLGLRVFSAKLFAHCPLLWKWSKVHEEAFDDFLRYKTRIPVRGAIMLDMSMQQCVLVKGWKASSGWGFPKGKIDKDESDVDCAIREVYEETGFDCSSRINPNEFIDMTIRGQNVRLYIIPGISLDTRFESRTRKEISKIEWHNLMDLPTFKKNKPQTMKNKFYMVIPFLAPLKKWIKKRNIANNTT
T1 sequence (Q9P805 1-127 partner): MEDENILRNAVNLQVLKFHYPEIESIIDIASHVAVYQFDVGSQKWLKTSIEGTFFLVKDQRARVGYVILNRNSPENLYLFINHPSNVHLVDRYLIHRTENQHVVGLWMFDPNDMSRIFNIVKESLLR
Type of experiment: biochemical.

The next experiment deals with T2, SpDcp1/2 (Schizosaccharomyces pombe, UniProt O13828).
T2 sequence (O13828 1-243): T1 sequence (O13828 1-243 limits assumed)
T2 sequence (Q9P805 1-127 partner): T1 sequence (Q9P805 1-127 partner)
Kind of experiment: Single-turnover kinetic inhibition assay, SpDcp1/2, 29-nt native-capped RNA. Type of experiment: biochemical. The following applies: read-out: KI (affinity for the free enzyme), Dcp1/2 complex, subsaturating enzyme.

Consider `CO[C@H]1[C@@H](O)[C@H]([n+]2cn(C)c3c(=O)[nH]c(N)nc32)O[C@@H]1COP(=O)([O-])OP(=O)(O)OP(=O)(O)OC[C@H]1O[C@@H](n2cnc3c(=O)[nH]c(N)nc32)[C@H](O)[C@@H]1O` [Compound 16, m2^7,3′-OGpppG], for which the “inhibitory properties towards Dcp1/2 decapping (in words)” value against S. pombe Dcp1/2 is on record as “poor Dcp1/2 inhibitors”.
For `C[n+]1cn([C@@H]2O[C@H](COP(=O)(O)OP(=O)([O-])OP(=O)(O)OP(=O)(O)OC[C@H]3O[C@@H](n4cnc5c(=O)[nH]c(N)nc54)[C@H](O)[C@@H]3O)[C@@H](O)[C@H]2O)c2nc(N)nc(O)c21` [Compound 17, m^7GppppG], the “inhibitory properties towards Dcp1/2 decapping (in words)” value against S. pombe Dcp1/2 is listed as “minimal”.
Same read-out and setting: under `Nc1ncnc2c1ncn2[C@@H]1O[C@H](COP(=O)(O)OP(=O)(O)OP(=O)(O)O)[C@@H](O)[C@H]1O` [Compound 18, ATP] stands “poor Dcp1/2 inhibitors”; under `Nc1nc2c(ncn2[C@@H]2O[C@H](COP(=O)(O)OP(=O)(O)OP(=O)(O)O)[C@@H](O)[C@H]2O)c(=O)[nH]1` [Compound 19, GTP], “poor Dcp1/2 inhibitors”.
As for `Cn1c[n+]([C@@H]2O[C@H](COP(=O)(O)OP(=O)([O-])OP(=O)(O)OC[C@H]3O[C@@H](n4cnc5c(=O)[nH]c(N)nc54)[C@H](O)[C@@H]3O)[C@@H](O)[C@H]2O)c2nc(N)[nH]c(=O)c21` [m^7GpppG], the Ki at SpDcp1/2 was 1400 ± 300 µM.
